Test results taken from ChEMBL document CHEMBL1134339, “New 1-aryl-3-(4-arylpiperazin-1-yl)propane derivatives, with dual action at 5-HT1A serotonin receptors and serotonin transporter, as a new class of antidepressants” (J Med Chem, 2001).

Legend:
[1] = molecular target: Sodium-dependent serotonin transporter (Rattus norvegicus, UniProt P31652); experiment: Binding affinity towards Serotonin transporter from rat cortex measured using [3H]paroxetine; conditions: read-out: Ki
[2] = molecular target: T1, 5-hydroxytryptamine receptor 1A (Rattus norvegicus, UniProt P19327); experiment: Binding affinity to 5-hydroxytryptamine 1A receptor (5-HT 1A receptor, serotonin receptor) from rat cortex using [3H]8-OH-DPAT as radioligand
T1 sequence (P19327 whole entry): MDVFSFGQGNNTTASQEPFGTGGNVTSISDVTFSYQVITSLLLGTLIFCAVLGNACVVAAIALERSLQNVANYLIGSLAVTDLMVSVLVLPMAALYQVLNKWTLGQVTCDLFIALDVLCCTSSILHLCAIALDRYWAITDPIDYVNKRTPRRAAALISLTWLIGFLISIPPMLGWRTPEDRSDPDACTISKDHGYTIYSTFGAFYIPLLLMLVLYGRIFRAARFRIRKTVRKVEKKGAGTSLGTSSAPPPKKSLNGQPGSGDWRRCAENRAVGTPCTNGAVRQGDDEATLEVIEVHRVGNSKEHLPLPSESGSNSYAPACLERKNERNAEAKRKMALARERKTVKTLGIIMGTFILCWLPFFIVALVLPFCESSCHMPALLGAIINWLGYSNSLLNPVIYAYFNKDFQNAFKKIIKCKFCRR

Chain of Sodium-dependent serotonin transporter (P31652 whole entry): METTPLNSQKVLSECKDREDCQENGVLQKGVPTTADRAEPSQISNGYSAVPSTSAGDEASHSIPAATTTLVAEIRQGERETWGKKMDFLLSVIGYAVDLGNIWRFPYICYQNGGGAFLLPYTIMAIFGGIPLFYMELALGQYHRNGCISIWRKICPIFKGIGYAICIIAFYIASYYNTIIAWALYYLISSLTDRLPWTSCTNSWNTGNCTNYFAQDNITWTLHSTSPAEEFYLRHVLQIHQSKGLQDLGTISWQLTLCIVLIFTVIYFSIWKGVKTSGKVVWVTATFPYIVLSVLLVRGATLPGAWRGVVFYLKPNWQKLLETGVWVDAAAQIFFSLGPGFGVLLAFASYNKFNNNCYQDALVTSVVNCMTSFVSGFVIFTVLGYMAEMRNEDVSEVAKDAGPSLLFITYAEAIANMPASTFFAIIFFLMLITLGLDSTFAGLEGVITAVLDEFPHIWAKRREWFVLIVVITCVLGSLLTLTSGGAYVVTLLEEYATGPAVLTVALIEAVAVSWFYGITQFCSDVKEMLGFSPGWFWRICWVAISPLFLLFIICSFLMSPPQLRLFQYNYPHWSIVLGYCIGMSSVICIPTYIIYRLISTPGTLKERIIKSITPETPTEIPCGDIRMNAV

| SMILES | Ki [1] [nM] | Ki [2] [nM] | Ki ([2]; read-out: Ki) [nM] |
| --- | --- | --- | --- |
| Cc1cc(C(O)CCN2CCN(c3ccccc3O)CC2)c(C)s1 (centres undefined) | 2500 | 90 |  |
| FC(F)(F)c1ccc(OC(CCN2CCN(c3ccccc3Cl)CC2)c2ccccc2)cc1 (centres undefined) | > 5000 |  | > 5000 |
| COc1ccccc1N1CCN(CC/C(=N/O)c2ccc(C)s2)CC1 | 5000 |  | 75 |
| O=C(CCN1CCN(c2ncccn2)CC1)c1ccccc1 | > 5000 | 120 |  |
| O=C(CCN1CCN(c2ccccn2)CC1)c1ccccc1 | > 5000 |  | 50 |
| COc1ccccc1N1CCN(CCC(=O)c2ccc([N+](=O)[O-])s2)CC1 | > 5000 | 340 |  |
| COc1ccccc1N1CCN(CC/C(=N/O)c2cc(C)sc2C)CC1 | > 5000 |  | 130 |
| O=C(CCN1CCN(c2ccccc2Cl)CC1)c1ccsc1 | > 5000 |  | 200 |
| OC(CCN1CCN(c2ccccc2Cl)CC1)c1ccsc1 (centres undefined) | > 5000 |  | 200 |
| O=C(CCN1CCN(c2ccc([N+](=O)[O-])cc2)CC1)c1ccccc1 | > 5000 |  | > 5000 |
| COc1ccccc1N1CCN(CCC(O)c2ccc([N+](=O)[O-])cc2)CC1 (centres undefined) | 2500 |  | 10 |
| OC(CCN1CCN(c2ccccn2)CC1)c1ccccc1 (centres undefined) | > 5000 | 155 |  |
| COc1ccccc1N1CCN(CCC(O)c2ccccc2)CC1 (centres undefined) | > 5000 | 47.5 |  |
| O=[N+]([O-])c1ccc(N2CCN(CCC(Oc3ccc(C(F)(F)F)cc3)c3ccccc3)CC2)cc1 (centres undefined) | 2500 |  | > 5000 |
| FC(F)(F)c1ccc(OC(CCN2CCN(c3ncccn3)CC2)c2ccccc2)cc1 (centres undefined) | 1600 |  | 1600 |
| COc1ccc(C(=O)CCN2CCN(c3ccccc3OC)CC2)cc1 | > 5000 |  |  |
| COc1ccccc1N1CCN(CCC(=O)c2ccc([N+](=O)[O-])cc2)CC1 | > 5000 |  | 50 |
| O=C(CCN1CCN(c2ccc(Cl)cc2)CC1)c1csc2ccccc12 | 5000 |  | > 5000 |

| SMILES | Ki [1] [nM] | Ki [2] [nM] | Ki ([2]; read-out: Ki) [nM] |
| --- | --- | --- | --- |
| O/N=C(\CCN1CCN(c2ccc(Cl)cc2)CC1)c1ccccc1 | 5000 |  | > 5000 |
| COc1ccc(N2CCN(CCC(=O)c3ccccc3)CC2)cc1 | > 5000 |  | 5000 |
| OC(CCN1CCN(c2ncccn2)CC1)c1ccccc1 (centres undefined) | > 5000 | 375 |  |
| COc1ccccc1N1CCN(CCC(Oc2ccc3c(c2)OCO3)c2ccsc2)CC1 (centres undefined) | 6500 | 55 |  |
| COc1ccccc1N1CCN(CCC(Oc2cccc3ccccc23)c2cccs2)CC1 (centres undefined) | > 5000 | 220 |  |
| OC(CCN1CCN(c2ccc(F)cc2)CC1)c1ccccc1 (centres undefined) | 4700 | 145 |  |
| OC(CCN1CCN(c2ccccc2Cl)CC1)c1ccccc1 (centres undefined) | > 5000 | 115 |  |
| O=C(CCN1CCN(c2ccccc2O)CC1)c1ccc2ccccc2c1 | 2500 |  | 1000 |
| COc1ccccc1N1CCN(CCC(Oc2ccc(C(F)(F)F)cc2)c2ccc(-c3ccccc3)cc2)CC1 (centres undefined) | > 5000 |  | > 5000 |
| O=C(CCN1CCN(c2ccc(F)cc2)CC1)c1ccccc1 | > 5000 |  | 800 |
| COc1ccccc1N1CCN(CCC(O)c2ccc(C)s2)CC1 (centres undefined) | 5000 | 34 |  |
| COc1ccccc1N1CCN(CC/C(=N\O)c2cc(C)sc2C)CC1 | 5000 |  | 85 |
| COc1ccccc1N1CCN(CCC(=O)c2ccccc2)CC1 | > 5000 |  |  |
| COc1ccc(N2CCN(CCC(Oc3ccc(C(F)(F)F)cc3)c3ccccc3)CC2)cc1 (centres undefined) | > 5000 |  | > 5000 |
| O=C(CCN1CCN(c2ccccc2Cl)CC1)c1ccccc1 | > 5000 |  | 180 |
| COc1ccccc1N1CCN(CC/C(=N\O)c2ccccc2)CC1 | 5000 | 17.5 |  |
| COc1ccccc1N1CCN(CCC(=O)c2cccs2)CC1 | > 5000 |  | 10 |
| COc1ccccc1N1CCN(CCC(=O)c2ccc(C)s2)CC1 | > 5000 |  | 17.5 |

Compounds with a lower Ki [1], results first:

| Ki [1] [nM] | Ki [2] [nM] | Ki ([2]; read-out: Ki) [nM] | SMILES |
| --- | --- | --- | --- |
| 1500 |  |  | FC(F)(F)c1ccc(OC(CCN2CCN(c3ccccn3)CC2)c2ccccc2)cc1 (centres undefined) |
| 1450 | 90 |  | COc1ccc(OC(CCN2CCN(c3ccccc3OC)CC2)c2ccccc2)cc1 (centres undefined) |
| 1350 |  | 5 | COc1ccccc1N1CCN(CCC(=O)c2cc(C)sc2C)CC1 |
| 1250 | 19 |  | COc1ccccc1N1CCN(CCC(O)c2cccs2)CC1 (centres undefined) |
| 1150 |  | > 5000 | COc1ccc(N2CCN(CCC(O)c3ccccc3)CC2)cc1 (centres undefined) |
| 1150 |  | > 5000 | O=[N+]([O-])c1ccc(N2CCN(CCC(O)c3ccccc3)CC2)cc1 (centres undefined) |
| 1000 |  | 250 | COc1ccccc1N1CCN(CCC(=O)c2ccc3ccccc3c2)CC1 |
| 950 | 6.5 |  | COc1ccccc1N1CCN(CC/C(=N\O)c2ccsc2)CC1 |
| 800 | 7.5 |  | Cc1cc(C(=O)CCN2CCN(c3ccccc3O)CC2)c(C)s1 |
| 800 | 35 |  | O=C(CCN1CCN(c2cccc3ccccc23)CC1)c1ccsc1 |
| 750 |  | 13 | COc1cc(F)ccc1N1CCN(CCC(=O)c2cc(C)sc2C)CC1 |
| 700 | 3650 |  | COc1ccccc1N1CCN(CCC(=O)c2ccc(-c3ccccc3)cc2)CC1 |
| 650 |  | 1000 | COc1ccc(C(CCN2CCN(c3ccccc3OC)CC2)Oc2ccc(C(F)(F)F)cc2)cc1 (centres undefined) |
| 650 | 450 |  | COc1ccccc1N1CCN(CCC(Oc2ccc(C(F)(F)F)cc2)c2ccccc2)CC1 (centres undefined) |
| 500 |  | 100 | O=C(CCN1CCN(c2cccc3ccccc23)CC1)c1csc2ccccc12 |
| 500 | 325 |  | COc1ccc(C(O)CCN2CCN(c3ccccc3OC)CC2)cc1 (centres undefined) |
| 500 |  | 500 | COc1cc(F)ccc1N1CCN(CCC(=O)c2csc3ccccc23)CC1 |
| 500 |  | > 5000 | Fc1ccc(N2CCN(CCC(Oc3ccc(C(F)(F)F)cc3)c3ccccc3)CC2)cc1 (centres undefined) |
| 500 |  | 20 | COc1ccccc1N1CCN(CCC(Oc2ccc3c(c2)OCO3)c2ccccc2)CC1 (centres undefined) |
| 500 |  | 1450 | COc1ccc(OC(CCN2CCN(c3ccc(Cl)cc3)CC2)c2ccccc2)cc1 (centres undefined) |
| 490 | 110 |  | O=C(CCN1CCN(c2ccccc2O)CC1)c1csc2ccccc12 |

| Ki [1] [nM] | Ki [2] [nM] | Ki ([2]; read-out: Ki) [nM] | SMILES |
| --- | --- | --- | --- |
| 460 | 255 |  | COc1ccccc1N1CCN(CCC(Oc2ccc(C(F)(F)F)cc2)c2ccsc2)CC1 (centres undefined) |
| 385 |  | 50 | COc1ccccc1N1CCN(CCC(O)c2ccsc2)CC1 (centres undefined) |
| 380 | 420 |  | COc1ccccc1N1CCN(CCC(O)c2ccc3ccccc3c2)CC1 (centres undefined) |
| 375 | 550 |  | Clc1ccc(N2CCN(CCC(Oc3ccc4c(c3)OCO4)c3ccccc3)CC2)cc1 (centres undefined) |
| 370 |  | 100 | Cc1cc(C(=O)CCN2CCN(c3cccc4ccccc34)CC2)c(C)s1 |
| 350 |  | 800 | OC(CCN1CCN(c2ccc(Cl)cc2)CC1)c1ccccc1 (centres undefined) |
| 350 |  | > 5000 | FC(F)(F)c1ccc(OC(CCN2CCN(c3ccc(Cl)cc3)CC2)c2ccccc2)cc1 (centres undefined) |
| 300 |  | 800 | O=C(CCN1CCN(c2ccc(Cl)cc2)CC1)c1ccccc1 |
| 290 |  | > 5000 | OC(CCN1CCN(c2ccc(Cl)cc2)CC1)c1cccs1 (centres undefined) |
| 275 |  | 500 | COc1cc(Cl)ccc1N1CCN(CCC(=O)c2cc(C)sc2C)CC1 |
| 275 |  | 500 | COc1cc(Cl)ccc1N1CCN(CCC(=O)c2csc3ccccc23)CC1 |
| 240 |  | > 5000 | O=C(CCN1CCN(c2ccc(Cl)cc2)CC1)c1ccc2ccccc2c1 |
| 220 |  |  | O=C(CCN1CCN(c2ccc(Cl)cc2)CC1)c1ccsc1 |
| 200 |  |  | OC(CCN1CCN(c2ccc(Cl)cc2)CC1)c1ccsc1 (centres undefined) |
| 175 | 850 |  | COc1ccccc1N1CCN(CCC(O)c2ccc(-c3ccccc3)cc2)CC1 (centres undefined) |
| 60 |  | > 5000 | O=C(CCN1CCN(c2ccc(Cl)cc2)CC1)c1cccs1 |
| 50 |  | 5000 | OC(CCN1CCN(c2ccc(Cl)cc2)CC1)c1csc2ccccc12 (centres undefined) |
| 35 | 361 |  | COc1cc(Cl)ccc1N1CCN(CCC(O)c2csc3ccccc23)CC1 (centres undefined) |
| 12 |  | 500 | COc1cc(F)ccc1N1CCN(CCC(O)c2csc3ccccc23)CC1 (centres undefined) |
| 10 |  | > 5000 | OC(CCN1CCN(c2ccc(Cl)cc2)CC1)c1ccc2ccccc2c1 (centres undefined) |
